For one assay, the system named is mice. Kind of assay: Biweekly subcutaneous administration, peptide specific antibody in sera. The format is in vivo, mouse. The following applies: for antibodies specific for peptide (IgG or IgE) in sera: 100 μg s.c. in PBS on days 0, 14, 28 and 56, alone or in combination; for IgG antibodies to peptide, sera dilution: animals injected with the peptides in CFA. As to the method:
This animal model experiment was designed to simulate a human treatment protocol such as that described in Example 30. Mice were administered subcutaneous injections of 100 μg peptide/100 μl PBS on days 0, 14, 28 and 56. Mice were administered peptide X or peptide Y either alone or in combination. […] There was no specific binding above background levels for IgG or IgE.

The test system of assay [1] is PBMC from cat-allergic patients. The experiment in a line: IL-2, IFN-gamma and IL-4 measurements by PCR in primary 36 hour PBMC culture. In kind it is cell-based, human. The following applies: Patient 409 primary 36 hour culture; for STIMULATION INDEX IFN-γ / STIMULATION INDEX IL-4: PCR, vs medium control. How it is done:
Peripheral blood mononuclear cells (PBMC) were purified from cat-allergic patients as described in Example 5. Five×10^6 PBMC were cultured at 2×10^6/ml for 36 hours in the presence of medium only, 20 μg purified TRFP/ml or 50 μg peptide/ml. The cells were then washed two times with phosphate buffered saline (PBS, pH 7.2) and lysed with 2 ml […] guanidinium isothiocyanate, 0.5% Sarkosyl, 5 mM sodium citrate, 0.1 M 2-mercaptoethanol, pH 7.0. The lysate was then forced through a 26 gauge needle to shear genomic DNA, and was layered onto a 2 ml cushion of 5.7 M CsCl, 0.01 M EDTA, pH 7.5 in diethylpyrocarbonate (DEPC)-treated water. The lysate was centrifuged at 35,000 RPM in a Beckman SW41 rotor for 18 hours at 20° C. The RNA pellet was resuspended in 0.4 ml TE (10 mM Tris, 1 mM EDTA), pH 7.5, 0.1% SDS, and then extracted three times with 0.5 ml phenol/0.2 ml chloroform. The RNA was then precipitated on dry ice with 2.5 volumes ice-cold ethanol, 1/10 volume 3 M sodium acetate, pH 5.2 in DEPC-treated water, rinsed once with 70% ethanol in DEPC-treated water, and dried. The RNA pellet was resuspended in 2 μl TE., pH 7.5 in DEPC-treated water.
Total cellular RNA was converted to cDNA using the Superscript kit (BRL, Bethesda, Md.). Two μl of RNA were added to one μl oligo (dT)12-18 (500 μg/ml) and 9 μl water. The sample was heated to 70° C. for 10 minutes and ice quenched. Four μl 5× buffer were added to the sample along with 2 μl 0.1 M DTT and 1 μl dNTP mix (10 mM each, dATP, dCTP, dGTP, dTTP). One μl reverse transcriptase (200U) was added and the reaction was carried out for one hour at 42° C. The reaction was terminated by incubation of the sample at 90° C. for five minutes and stored at −80° C.
Ten-fold serial dilutions of T cell cDNA in 10 mM TRIS, pH 7.5 were amplified using the standard kit and protocol recommended by Perkin Elmer-Cetus (Redwood City, Calif.). Each sample received 26.65 μl water, 5 μl ×PCR buffer, 8 μl of dNTP mix (1.25 mM each of dATP, dCTP, dGTP and dTTP), 0.1 μl alpha 32P-dCTP (3000 Ci/mmol), 0.25 μl AmpliTaq, 5 μl cDNA and 5 μl cytokine-specific 5′ and 3′ primers (20 micromolar). The primers used for most cytokines and the beta-actin control were purchased from Clontech (Redwood City, Calif.). The human IL-4 primers were purchased from Research Genetics (Huntsville, Ala.) and had the following sequences: 5′ hIL-4 primer (SEQ. ID. NO: 58):
The PCR products were extracted once with 25 μl chloroform and 25 μl of each sample were then electrophoresed on an 8% polyacrylamide gel at 250 V. The gel was dried and exposed to pre-flashed x-ray film. Several exposures of each gel were then scanned using a Shimadzu flying spot laser densitometer. Values on the linear portion of the titrations were then compared to the medium control values to obtain a stimulation index for each sample. Primers for beta-actin were included as a control for general cDNA levels in each sample. Where the medium control values are not detectable, the lowest measurable response was set at 1.00. In other experiments, levels of cytokine cDNA can be compared directly with previously amplified cytokine specific cDNAs as standards. Thus, absolute levels of particular cytokine cDNAs can be compared from one sample to another and from one experiment to another. In this experiment, IL-2, IL-4 and IFN-gamma levels were measured. As shown, in this particular cat-allergic patient, peptides such as Fel 18 generate more IL-4 than certain other TRFP-derived peptides (Fel 14 and Fel 17). This analysis will be expanded to studies of other cytokines involved in the generation of allergic responses, such as IL-5, IL-8, IL-9, TGF-beta. Samples of cDNA from each treatment can also be saved for later analysis once additional cytokines are identified and sequenced. Peptides generating a spectrum of cytokines favorable for the generation of allergic responses can be avoided for therapeutic use in the treatment of cat allergy. […]

Assay [2] concerns Patient 155 TRFP secondary primed T cells. The experiment in a line: In vitro induction of T cell non-responsiveness, then proliferation on antigenic challenge. The format is cell-based, human. The following applies: label = tolerance treatment. As to the method:
Patient 155 TRFP secondary primed T cells (2.5×10^6) were rested and cultured with (2.5×10^6) irradiated autologous Epstein Barr Virus transformed B cells (EBV) in 1 ml of complete RPMI with 10% AB serum in 12×75 mm polypropylene snap cap tubes and increasing amounts of antigen over 5 consecutive days. The T cell cultures were exposed to 5 μg/ml purified native TRFP on day 0 and 5 μg/ml, 10 μg/ml, 10 μg/ml and 20 μg/ml thereafter. The peptide treated cultures were exposed to 1 μg/ml peptide on day 0 and 1 μg/ml, 1 μg/ml, 2 μg/ml and 5 μg/ml thereafter. In addition, 0.5 ml of fresh media was replaced on day 2. The cells were then washed and set up for a proliferation assay with 2×10^4 T cells and 2×10^4 irradiated (2500 Rad) autologous EBV and various doses of antigen. T cell proliferation was measured as incorporation of tritiated thymidine at day 9.

These results are taken from US7482008B1, “Human T cell reactive feline protein (TRFP) isolated from house dust and uses therefor” (Merck Patent GmbH, priority 1989, dated 2009).

With “peptide Y: amino acid residues 29-55 from chain 1 of TRFP (SEQ. ID. NO: 18) (KALPVVLENARILKNCVDAKMTEEDKE)”, in the assay on mice, the “antibodies specific for peptide (IgG or IgE) in sera” value is given as “no antibodies specific for either peptide” and the “IgG antibodies to peptide, sera dilution” value is on record as 1/4500.
Turning to “NARILKNCVDAKMTEEDKE [Fel 4, TRFP chain 1 amino acids 37-55]”, in assay [1], the “RATIO IFN/IL-4” value was found to be 2.6, the “STIMULATION INDEX IFN-γ” value is recorded as 25.8 and the “STIMULATION INDEX IL-4” value came to 10.0.
Take “TRFP: human T cell reactive feline protein affinity purified from house dust; two covalently linked chains”: the “T cell proliferation following antigenic challenge” value in assay [2] (challenge with Fel 8-3) is recorded as 36,030 cmp; in assay [2] (challenge with Ragweed Peptide), 6,670 cmp; in assay [2] (challenge with TRFP), 33,160 cmp; in assay [2] (no antigenic challenge (—)), 2,190 cmp. Also, in assay [1], the “RATIO IFN/IL-4” value is recorded as 0.9. In addition, the “STIMULATION INDEX IFN-γ” value in assay [1] turned out to be 2.1. Also, the “STIMULATION INDEX IL-4” value in assay [1] is listed as 3.8.
Consider “peptide X: amino acid residues 7-30 from chain 1 of TRFP (SEQ. ID. NO: 17); Table 2 lists Fel 8-3 as 7-33 (KRDVDLFLTGTPDEYVEQVAQYKALPV)”, for which the “T cell proliferation following antigenic challenge” value is 3,850 cmp in assay [2] (challenge with Fel 8-3), 5,130 cmp in assay [2] (challenge with Ragweed Peptide), 12,320 cmp in assay [2] (challenge with TRFP) and 1,270 cmp in assay [2] (no antigenic challenge (—)). The “antibodies specific for peptide (IgG or IgE) in sera” value in the assay on mice was “no antibodies specific for either peptide”. Further, the “IgG antibodies to peptide, sera dilution” value in the assay on mice is 1/4500.
